In data set [1] the test system is Wild-type mice. The experiment in a line: Tolerability in wild-type mice. Type of data set: in vivo. Particulars: 5 mg/kg daily, up to 20 days of treatment.
For data set [2] the following is noted: mouse, in vivo, po, 15 mg/kg. On the procedure:
In another exemplary method, oral administration of AEOL11207 was examined for efficiently to penetrate the blood-brain barrier (BBB) and brain mitochondria. To determine if AEOL11207 penetrates the BBB, preliminary studies were conducted in mice following injection of AEOL 11207. Mice were given a single dose of the compound (15 mg/kg, p.o. AEOL 11207) or vehicle (control). At various times after injection, mice were perfused and brains (cortex) and plasma were extracted with methanol and samples analyzed by an HPLC method as described previously. […] FIGS. 3A and 3B illustrate plasma and brain concentrations of AEOL11207 following s.c. or p.o. administration. […]
FIGS. 3A-3B illustrate exemplary concentrations of AEOL11207 in the plasma (3A) and brains (3B) of the C57BL/6 mice at different times points after a single dose of AEOL11207 (15 mg/kg) administered by the s.c or p.o. route. […] FIG. 3C illustrates an exemplary chromatogram of AEOL 11207 levels measured by HPLC with UV detection at 450 nm in mitochondrial fractions of mouse forebrain 24 hr after AEOL11207 15 mg/kg s.c. as previously described. Recovery of AEOL11207 from mitochondrial samples was determined to be ˜98%. […]
Determination of metalloporphyrin levels AEOL11207 was measured by HPLC-UV following previously described methods (Liang, et al. (2007) J Neurosci 27, 4326-33).

For data set [3], the system named is parietal cortex of Sod2−/− mice. The experiment in a line: Histochemical analyses (H&E, Fluoro-Jade B) of Sod2−/− mouse brain. Format: in vivo.
Data set [4] has as its system paraquat (PQ2+)-induced cell injury. The experiment in a line: Paraquat (PQ2+)-induced cell injury assay. Format: cell-based. Particulars: data not shown.
The nature of data set [5]: Scavenging of reactive oxygen species in cell-free systems and isolated mitochondria. Format: biochemical.
Data set [6] can be described thus: Ames' test (mutagenicity). Type of data set: cell-based. An excerpt:
Safety profile: A prototypical metalloporphyrin (AEOL10150; FIG. 1) has completed phase 1 trials in amyotrophic lateral sclerosis patients. Extensive safety studies of this compound have been completed in mice, monkeys and rats. […] Safety studies for the structurally related compound, AEOL11207 need to be completed once its efficacy is established in animal studies.

Data set [7] deals with forebrain of Sod2−/− mice. The experiment in a line: Mitochondrial oxidative stress and bioenergetic indices in brain of Sod2−/− mice. Format: in vivo.
Data set [8] concerns 1-methyl-4-phenyl-1,2,3,6-tetrahydropyridine (MPTP) neurotoxicity. Particulars: oral administration; cited from earlier work.
Data set [9] relates to kainate-induced epileptogenesis in rats. The data set can be described thus: Kainate-induced chronic epilepsy development (rat model of temporal lobe epilepsy). Type of data set: in vivo. On the procedure: The rat model of temporal lobe epilepsy is initiated by a single injection of a chemoconvulasant agent which results in spontaneous epileptic seizure arise several days to weeks thereafter. Groups of rats administered vehicle, kainate (a chemoconvulsant used to initiate injury), kainate+AEOL11207 and AEOL11207 were monitored 6 weeks for behavioral seizures and indices of oxidative stress (GSH/GSSG, CoASH/CoASSG). AEOL11207 was administered at an arbitrary dose of 5 mg/kg, s.c. daily beginning 6 hr after injection of kainate (11 mg/kg). All of the rats in both groups experienced SE after kainate injection, and there was no difference in any of the characteristics of SE between the groups. […] The time to develop chronic epilepsy (latency to chronic epilepsy), spontaneous seizure frequency, severity and duration was determined.
In another exemplary experiment, pharmacological removal of ROS was examined for its inhibition on kainate-induced epileptogenesis. A pilot was performed in which groups of rats administered vehicle (n=4), kainate (n=6), kainate+AEOL11207(n=6) and AEOL11207 (n=4) were monitored 6 weeks for behavioral seizures (Table 1) and indices of oxidative stress (GSH/GSSG, CoASH/CoASSG) (FIG. 6).
AEOL11207 was administered at a dose of 5 mg/kg, s.c. daily beginning 6 hr after injection of kainate ([…]). All of the rats in both groups experienced SE after kainate injection, and there was no difference in any of the characteristics of SE between the groups. […] The time to develop chronic epilepsy (latency to chronic epilepsy), spontaneous seizure frequency, severity and duration was determined as previously described. […] None of the rats in the control or AEOL11207 alone groups developed seizures. […] FIG. 6 and Table 1 illustrate the effect of AEOL11207 on kainate-induced chronic epilepsy development (n=6/group) and oxidative stress (n=4-6 per group).

The mark [10] stands for this setting: forebrain mitochondrial fraction of Sod2−/− mice.
[11] abbreviates: kainate rats, compared to controls.
Where [12] appears, read: the 2 rats of the kainate+AEOL11207 group that developed epilepsy.

The values that follow come from patent US20120289492A1, “METHODS OF TREATING MITOCHONDRIAL DISORDERS USING METALLOPORPHYRINS” (priority 2009, published 2012).

Each structure is given as a SMILES string.

As to `COC(=O)c1c2nc(c(C(F)(F)F)c3ccc([n-]3)c(C(=O)OC)c3nc(c(C(F)(F)F)c4ccc1[n-]4)C=C3)C=C2.[Cl-].[Mn+3]` [AEOL11207], in [1], the ill effects result is on record as “no ill effects” and the mortality entry was “no mortality”. Also, the “estimated concentration in the brain” value in data set [2] is given as “within the protective range”. Also, the “Histopathological damage including vacuole size and number” value in [3] (H&E staining, Sod2−/− mice P15-16) is “decreased”. Further, in data set [3] (compared to vehicle treatment), the “neuronal degeneration (Fluoro-Jade B staining)” value is on record as “Significant protection”. For the same compound, the “attenuation of Fluoro-Jade B relative fluorescence density” value in data set [3] (parietal cortex of Sod2−/− mice, compared to vehicle treatment) is roughly 50%. Besides, the protective range in data set [4] is 30 to 100 nM. The “scavenging of mitochondrial O2-, H2O2 and lipid peroxides” value in data set [5] is on record as “catalytically scavenges”. In data set [6], the “mutagenicity, Ames' test” value was “negative”. For the same compound, in [7] (brains of Sod2−/− mice), the depletion of ascorbate result is given as “significantly attenuated” and the depletion of glutathione result was “significantly attenuated”. Further, in data set [7] (setting [10]), the decrease in cysteine entry is “significantly attenuated” and the decrease in methionine result is reported as “significantly attenuated”. Also, the “increased CoASSG” value in data set [7] (forebrain of Sod2−/− mice, 15-16 days old) is “significantly attenuated”. Further, the “decrease in glutamate transporter GLT-1 expression” value in data set [7] (hippocampus of Sod2−/− mice, Western blot) is reported as “significantly attenuated”. Besides, in [8], the “protection against MPTP neurotoxicity” value is on record as “protected”. Also, the “rats that developed seizures” value in data set [9] (AEOL11207 alone group, no kainate) is “None”. In [9] (in comparison with two-thirds in the kainate group), the “rats that developed chronic epilepsy during 6 weeks” value is on record as “one-third”. Also, in data set [9] (kainate + 5 mg/kg s.c. daily, kainate alone 33.3 ± 1.9), the “Duration of seizures (sec.)” value was 28.3 ± 2.2*p < 0.05 sec. Moreover, in [9] (setting [11]), the CoASH/CoASSG ratio result is on record as “significantly improved” and the GSH/GSSG ratio entry is recorded as “significantly improved”. For the same compound, in [9] (setting [12]), the “decrease of seizure duration” value is reported as roughly 15% and the “number of seizures per animal” value is reported as “no changes”.
